This passage reports half-life results from patent publication US20150018268A1, “MULTIVALENT SYNTHETIC COMPOUNDS AS ANTIBIOTIC TREATMENT” (CENTRE NATIONAL DE LA RECHERCHE SCIENTIFIQUE (CNRS), priority 2010, published 2015).

Series [1] is described as follows: Half-life in human serum. The class given is in vitro ADME. Particulars: human serum at 37° C. An excerpt:
(§1) The term “standard peptide bond” means an amide bond of formula (—CONH—) which is normally present between 2 amino acids in a natural protein. Such a bond is sensitive to the action of proteases. The term “modified peptide bonds ψ” means a chemical bond between 2 amino acids of chemical formula distinct from the standard peptide bond of formula (—CONH—). […] The term “protease”, also known as “peptidase” or “proteolytic enzyme”, means any enzyme which cleaves the standard peptide bonds in proteins. This process is known as proteolytic cleavage. This involves the use of a water molecule which is what leads to proteases being classified as hydrolases. The proteases namely include proteases known as N-peptidases which carry out the cleavage of the N-terminal end of proteins. These proteases are particularly inconvenient in terms of the in vivo stability of peptides without modified peptide bonds.

The nature of series [2]: Half-life in foetal calf serum. Particulars: bovine; foetal calf serum at 37° C. The class given is in vitro ADME.
Source text: as §1

Structures are written as SMILES. Square brackets hold non-standard residues; d marks the D form. Side chains are listed from the residue outwards. Peptide text beside a SMILES is read from it. * marks the point of attachment. X1 = NCCCCC(N)CN1CCC[C@H]1C(=O)*; Ahx = NCCCCCC(=O)O Bounds are passed on as bounds.

On to `N=C(N)NCCC[C@H](NC(=O)[C@@H]1CCCN1CC(N)CCCCN)C(=O)NCCCC[C@H](NC(=O)[C@H](CCCCN)NC(=O)[C@H](CCCCNC(=O)[C@H](CCCNC(=N)N)NC(=O)[C@@H]1CCCN1CC(N)CCCCN)NC(=O)[C@H](CCCNC(=N)N)NC(=O)[C@@H]1CCCN1CC(N)CCCCN)C(=O)NCC(=O)N1CCC[C@H]1C(=O)N[C@@H](CCCCNC(=O)[C@H](CCCNC(=N)N)NC(=O)[C@@H]1CCCN1CC(N)CCCCN)C(=O)N[C@@H](CCC(=O)O)C(=O)N[C@@H](CCCCNC(=O)[C@H](CCCNC(=N)N)NC(=O)[C@@H]1CCCN1CC(N)CCCCN)C(=O)NCCCCCC(N)=O` (some centres unmarked) [HB19, 5[Kψ(CH2N)PR]-TASP] (X1-RK([Arg-X1])KK([Arg-X1])GPK([Arg-X1])EK([Arg-X1])[Ahx]-NH2), for which the half-life in series [1] and in series [2] was above 24 h throughout.

Broadly, the half-life is the time needed for the level to fall by half in the phase considered.
